Source: EP4643657A1, “COMPOSITIONS CONTAINING SHORT-CHAIN FATTY ACID, METHODS OF USE, AND METHODS OF MAKING THEREOF” (Velocity Life Sciences, LLC, priority 2024, dated 2025)
Values joined by “and” are separate entries in the source; they are usually repeats but may differ in a detail not shown here. Equal entries are not always repeated. “Also recorded” adds a separate entry of the source. Where two headings read alike, the source gives them in different places. Each block holds one compound with its values, some of them ahead of it.

Key:
[1] = male, human, in vivo
[2] = Visual-analog scales of affect, randomized three-arm crossover trial (Example 5); assay type: in vivo, human; set-up: Mood AUC / Alertness AUC / Well-being AUC / Calm and Relaxed AUC / Stressed and Anxious AUC: unit not given here
Protocol: Experimental Design: This was a randomized, three-arm, crossover trial in which participants visited the laboratory on four occasions (one screening visit and three testing visits). […] Written informed consent was obtained from all subjects prior to enrollment. The study was retrospectively registered on clinicaltrials.gov (#NCT06700785). This study was conducted at The Center for Applied Health Sciences, a contract research organization located in Northeast Ohio. […] VAS assessed subjective ratings of state of well-being, calm and relaxed, stressed and anxious, mood, motivation to perform tasks, level of alertness, and ability to concentrate and were anchored with "Worst possible", "Lowest possible", "Strongly Disagree", or "Best Possible", "Highest Possible", "Strongly Agree". […] Statistical Analyses: Normality was assessed using Q-Q plot and Shapiro-Wilks test. Severe non-normal measures were normalized using log (In) transformation. Serum butyrate concentrations, subjective ratings of affect, and vitals over time between treatments were analyzed using a mixed effects factorial ANOVA . Tukey post hocs were applied if significant main effects/interactions were observed. […] Effect sizes are reported as Cohen's d (with 0.2 considered a small effect, 0.5 considered a medium effect, and 0.8 considered a large effect). All analyses were conducted in GraphPad Prism v.10.4.0.

[3] = Serum butyrate pharmacokinetics, randomized three-arm crossover trial (Example 5); details: for Serum Butyrate: 10 healthy men, Mean ± SD; for Tmax comparison between treatments: Wilcoxon rank test; for AUC0-210 comparison between treatments / Cmax comparison between treatments: paired samples t-test
[4] = Exposure of the prepared salt to air at room temperature (hygroscopicity, storage stability); assay type: physicochemical; details: for Hygroscopicity: exposed at room temperature to air
From the text: The L-arginine butyrate prepared using ethanol as the sole solvent was a white to off-white powder.
The L-lysine butyrate prepared using ethanol as the sole solvent was a light, pale yellow to yellow powder. […] Table 1: Attempted preparation of salts of amino acids and amino acid derivatives of butyric acid.

[5] = Nootropic and related properties after oral administration (Example 3); assay type: in vivo, human
Protocol: In another experiment, L-lysine butyrate in a dose range of 500 mg to 5,000 mg was administered as an aqueous solution to six individuals aged between 22 and 55 years, comprising two women and four men. […] The observed effects were dose-dependent, with larger doses of L-lysine butyrate providing greater effects and longer duration, lasting up to four hours.
In another experiment, L-lysine butyrate in a dose of 2 g, and on a separate occasion 5 g, was administered in encapsulated form, to 2 individuals. A further individual was administered L-lysine butyrate in a dose of 2 g in encapsuled form.

[6] = given intravenously; plasma; cited from earlier work
[7] = 0 min (prior to ingestion), 100-mm VAS, Mean±SD
[8] = 0-210 min, 786 mg of butyric acid oral, Mean±SD
[9] = 45 min post ingestion, 786 mg of butyric acid oral, 100-mm VAS, Mean±SD
[10] = 90 min post ingestion, 786 mg of butyric acid oral, 100-mm VAS, Mean±SD
[11] = 150 min post ingestion, 786 mg of butyric acid oral, 100-mm VAS, Mean±SD
[12] = 210 min post ingestion, 786 mg of butyric acid oral, 100-mm VAS, Mean±SD
[13] = motivation to perform tasks, 0 min (prior to ingestion), 100-mm VAS, Mean±SD
[14] = seven (7) days at room temperature
[15] = 500 mg to 5,000 mg as aqueous solution, six individuals

Serum Butyrate ([1]; 0 min): 0.41 ± 0.71 µg/mL | Serum Butyrate AUC0-210 ([1]; po, 786 mg): 108 ± 190 | Serum Butyrate Cmax ([1]; po, 786 mg): 0.91 ± 1.65 µg/mL
Compound: CCCC(=O)OCC(COC(=O)CCC)OC(=O)CCC [TB, propane-1,2,3-triyl tributanoate]
Ability to concentrate (VAS) [2, 7]: 6.9 ± 1.7 cm | Alertness [2, 7]: 6.7 ± 1.7 | Calm and Relaxed [2, 7]: 7.5 ± 1.2 cm | Mood [2, 7]: 7.1 ± 1.5^# cm | Stressed and Anxious [2, 7]: 2.7 ± 2.0 cm | Well-being [2, 7]: 7.4 ± 1.2 cm | Alertness AUC [2, 8]: 1481 ± 293 | Calm and Relaxed AUC [2, 8]: 1571 ± 245 | Concentration AUC [2, 8]: 1504 ± 315 | Mood AUC [2, 8]: 1600 ± 214 | Well-being AUC [2, 8]: 1588 ± 234 | Stressed and Anxious AUC ([2]; 0-210 min, 786 mg of butyric acid oral, Mean±SD, raw untransformed data): 518 ± 408 | Ability to concentrate (VAS) [2, 9]: 7.1 ± 1.6 cm | Alertness [2, 9]: 7.0 ± 1.5 | Calm and Relaxed [2, 9]: 7.2 ± 1.4 cm | Mood [2, 9]: 7.5 ± 1.1^# cm | Stressed and Anxious [2, 9]: 2.7 ± 2.2 cm | Well-being [2, 9]: 7.6 ± 1.1 cm | Ability to concentrate (VAS) [2, 10]: 6.9 ± 1.6 cm | Alertness [2, 10]: 6.9 ± 1.4 | Calm and Relaxed [2, 10]: 7.5 ± 1.3 cm | Mood [2, 10]: 7.6 ± 1.0^# cm | Stressed and Anxious [2, 10]: 2.4 ± 1.9 cm | Well-being [2, 10]: 7.6 ± 1.2 cm | Alertness [2, 11]: 7.1 ± 1.6^# | Calm and Relaxed [2, 11]: 7.5 ± 1.2 cm | Concentration [2, 11]: 7.4 ± 1.4^α cm | Mood [2, 11]: 7.7 ± 1.0 cm | Stressed and Anxious [2, 11]: 2.4 ± 2.0 cm | Well-being [2, 11]: 7.5 ± 1.1 cm | Ability to concentrate (VAS) [2, 12]: 7.5 ± 1.6 cm | Alertness [2, 12]: 7.5 ± 1.5 | Calm and Relaxed [2, 12]: 7.9 ± 1.2 cm | Mood [2, 12]: 8.0 ± 1.0 cm | Stressed and Anxious [2, 12]: 2.3 ± 2.2 cm | Well-being [2, 12]: 7.8 ± 1.2 cm | Perform Tasks [2, 13]: 6.9 ± 1.6 cm | Perform Tasks AUC ([2]; motivation to perform tasks, 0-210 min, 786 mg of butyric acid oral, Mean±SD): 1505 ± 331 | Perform Tasks ([2]; motivation to perform tasks, 45 min post ingestion, 786 mg of butyric acid oral, 100-mm VAS, Mean±SD): 7.2 ± 1.3 cm | Perform Tasks ([2]; motivation to perform tasks, 90 min post ingestion, 786 mg of butyric acid oral, 100-mm VAS, Mean±SD): 7.1 ± 1.7 cm | Perform Tasks ([2]; motivation to perform tasks, 150 min post ingestion, 786 mg of butyric acid oral, 100-mm VAS, Mean±SD): 7.2 ± 1.8 cm | Perform Tasks ([2]; motivation to perform tasks, 210 min post ingestion, 786 mg of butyric acid oral, 100-mm VAS, Mean±SD): 7.3 ± 1.9 cm

Compound: CCCC(=O)O [L-Lysine Butyrate, L-lysine butyrate]
Serum Butyrate ([3]; 0 min (baseline, prior to ingestion)): 0.32 ± 0.43 µg/mL | Serum Butyrate ([3]; 20 min post ingestion, oral, 3 capsules delivering 786 mg of butyric acid): 4.53 ± 7.56 µg/mL | Serum Butyrate ([3]; 45 min post ingestion, oral, 3 capsules delivering 786 mg of butyric acid): 0.77 ± 1.49 µg/mL | Serum Butyrate ([3]; 90 min post ingestion, oral, 3 capsules delivering 786 mg of butyric acid): 0.39 ± 0.62 µg/mL | Serum Butyrate ([3]; 150 min post ingestion, oral, 3 capsules delivering 786 mg of butyric acid): 0.43 ± 0.64 µg/mL | Serum Butyrate ([3]; 210 min post ingestion, oral, 3 capsules delivering 786 mg of butyric acid): 0.37 ± 0.55 µg/mL | Tmax comparison between treatments ([3]; listed as LysB): did not differ from NaB; also recorded: significantly less than TB | AUC0-210 comparison between treatments ([3]; listed as LysB): did not differ from NaB; also recorded: significantly greater than TB | Cmax comparison between treatments ([3]; listed as LysB): did not differ from NaB; also recorded: significantly greater than TB | Appearance after exposure to air ([4]; 24 hours at room temperature): remained a fine, free-flowing yellow powder | Hygroscopicity [4]: not hygroscopic | Appearance after exposure to air [4, 14]: remained a fine, free-flowing powder with no color change | Appearance after exposure to air ([4]; thirty (30) days at room temperature): remained a fine, free-flowing powder | Dose dependence of observed effects ([5]; 500 mg to 5,000 mg as aqueous solution): dose-dependent | Effects reported by participants [5, 15]: more relaxed, less tired, more sociable, and able to concentrate on tasks more effectively | Time to reported effects after administration [5, 15]: thirty | Duration of effects ([5]; 500 mg to 5,000 mg as aqueous solution, larger doses): up to four | Analgesic effect ([5]; 2 g oral, encapsulated form, two of the individuals): analgesic effect, eliminating minor-to-moderate pain and discomfort | Mental effects ([5]; single oral administration of 2 g, encapsulated form): pleasant mental effects, including an improvement in focus, alertness, concentration, reduction in anxiety, and a general feeling of well-being | Mental effects ([5]; single oral administration of 5 g, encapsulated form): undesirable mental effects, interfering with focus and alertness, with effects similar to intoxication | Alertness [2, 7]: 6.9 ± 1.5^€ | Calm and Relaxed [2, 7]: 7.5 ± 0.8^# cm | Concentration [2, 7]: 7.1 ± 1.3 cm | Mood [2, 7]: 7.7 ± 0.9 cm | Stressed and Anxious [2, 7]: 2.0 ± 1.4 cm | Well-being [2, 7]: 7.3 ± 0.9 cm | Alertness ([2]; in vivo, po): 7.2 ± 1.3 and 7.4 ± 1.2 and 7.5 ± 1.2 and 7.5 ± 1.1 | Alertness AUC ([2]; in vivo, po): 1544 ± 249 | Calm and Relaxed ([2]; in vivo, po): 7.7 ± 0.9^# cm and 7.6 ± 1.2 cm and 7.6 ± 1.1^# cm and 8.0 ± 0.9 cm | Calm and Relaxed AUC ([2]; in vivo, po): 1612 ± 207 | Concentration ([2]; in vivo, po): 7.1 ± 1.4 cm and 7.5 ± 1.3^β cm and 7.4 ± 1.1 cm and 7.3 ± 1.6 cm | Concentration AUC ([2]; in vivo, po): 1532 ± 241 | Mood ([2]; in vivo, po): 7.9 ± 0.7 cm and 7.6 ± 1.1 cm and 8.0 ± 0.7 cm and 8.0 ± 0.8 cm | Mood AUC ([2]; in vivo, po): 1651 ± 171 | Perform Tasks ([2]; in vivo, po): 7.1 ± 1.3 cm and 7.4 ± 1.1 cm and 7.6 ± 1.3 cm | Perform Tasks AUC ([2]; in vivo, po): 1547 ± 262 | Stressed and Anxious ([2]; in vivo, po): 2.1 ± 1.6 cm and 2.3 ± 1.7 cm and 1.8 ± 1.3 cm and 2.0 ± 1.3 cm | Stressed and Anxious AUC ([2]; in vivo, po): 431 ± 288 | Well-being ([2]; in vivo, po): 7.6 ± 0.9^# cm and 7.6 ± 1.1 cm and 7.7 ± 1.0^# cm and 8.0 ± 0.9 cm | Well-being AUC ([2]; in vivo, po): 1610 ± 195 | Perform Tasks [2, 13]: 6.9 ± 1.7 cm

Compound: L-arginine butyrate
Appearance after exposure to air ([4]; 24 hours at room temperature): formed hard, rock-like clumps | Hygroscopicity [4]: quite hygroscopic | Appearance after exposure to air [4, 14]: significantly hydrated into, large solid masses

Compound: CCCC(=O)O [Butyric Acid, butanoic acid]
half-life [6]: about six

Compound: CCCC(=O)[O-].[Na+] [Sodium Butyrate, Sodium butyrate]
Tmax comparison between treatments [3]: significantly less than TB | AUC0-210 comparison between treatments [3]: significantly greater than TB | Cmax comparison between treatments [3]: significantly greater than TB | Alertness [2, 7]: 6.4 ± 1.2 | Calm and Relaxed [2, 7]: 7.6 ± 0.9 cm | Concentration [2, 7]: 6.4 ± 1.2 cm | Mood [2, 7]: 7.1 ± 1.2 cm | Stressed and Anxious [2, 7]: 2.4 ± 1.4 cm | Well-being [2, 7]: 7.0 ± 1.2 cm | Alertness ([2]; in vivo, po): 6.5 ± 1.6 and 6.8 ± 1.3 and 6.7 ± 1.6 and 7.1 ± 1.8 | Alertness AUC ([2]; in vivo, po): 1411 ± 293 | Calm and Relaxed ([2]; in vivo, po): 7.3 ± 1.2 cm and 7.6 ± 1.0 cm and 7.9 ± 1.1^¥ cm and 7.9 ± 1.2 cm | Calm and Relaxed AUC ([2]; in vivo, po): 1608 ± 216 | Concentration ([2]; in vivo, po): 6.4 ± 1.7 cm and 6.6 ± 1.5 cm and 6.5 ± 1.9 cm and 6.9 ± 2.1 cm | Concentration AUC ([2]; in vivo, po): 1371 ± 343 | Mood ([2]; in vivo, po): 7.1 ± 1.1 cm and 7.4 ± 1.2 cm and 7.7 ± 1.0 cm and 7.8 ± 1.2 cm | Mood AUC ([2]; in vivo, po): 1558 ± 215 | Perform Tasks ([2]; in vivo, po): 6.8 ± 1.6 cm and 7.1 ± 1.3 cm and 6.9 ± 1.7 cm and 7.1 ± 1.5 cm | Perform Tasks AUC ([2]; in vivo, po): 1452 ± 297 | Stressed and Anxious ([2]; in vivo, po): 2.3 ± 1.5 cm and 2.3 ± 1.6 cm and 2.1 ± 1.8 cm and 2.0 ± 1.8 cm | Stressed and Anxious AUC ([2]; in vivo, po): 466 ± 339 | Well-being ([2]; in vivo, po): 7.2 ± 1.2 cm and 7.3 ± 1.2 cm and 7.5 ± 1.1 cm and 7.6 ± 1.3 cm | Well-being AUC ([2]; in vivo, po): 1543 ± 242 | Perform Tasks [2, 13]: 6.5 ± 1.4^£ # cm
